The source of these data is patent US12083124B2 (Incyte Corporation, priority 2019, dated 2024).

Test [1] addresses wild-type un-phosphorylated FGFR2 (Homo sapiens, UniProt P21802). As to the kind of experiment: FGFR Enzymatic Assay (FRET peptide phosphorylation), FGFR2.
Procedure: (§1) The inhibitor potency of the exemplified compounds was determined in an enzyme discontinuous assay that measures peptide phosphorylation using FRET measurements to detect product formation. Inhibitors were serially diluted in DMSO and a volume of 0.2 μL was transferred to the wells of a 384-well plate. […] Appropriate controls (enzyme blank and enzyme with no inhibitor) were included on the plate. […] The 10 μL/well reaction concentration of the peptide substrate was 500 nM whereas the ATP concentration was maintained near or below the ATP Km. The ATP Km values were pre-determined in a separate series of experiments. The reaction plate was incubated at 25° C. for 1 hr and the reactions were ended with the addition of 5 μL/well of quench solution (50 mM Tris, 150 mM NaCl, 0.5 mg/mL BSA, pH 7.8; 45 mM EDTA, 600 nM staurosporin, with Perkin Elmer Lance Reagents at 3.75 nM Eu-antibody PY20 and 180 nM APC-Streptavidin). The plate was allowed to equilibrate for ˜10 minutes at ambient temperature before scanning on a PheraStar plate reader (BMG Labtech) instrument.
(§2) Either GraphPad prism or XLfit was used to analyze the data. The IC50 values were derived by fitting the data to a four parameter logistic equation producing a sigmoidal dose-response curve with a variable Hill coefficient. Prism equation: Y=Bottom+(Top-Bottom)/(1+10^((Log IC50-X)*Hill slope)); XLfit equation: Y=(A+((B−A)/(1+((X/C)^D)))) where X is the logarithm of inhibitor concentration and Y is the response.
(§3) GraphPad prism3 was used to analyze the data. The IC50 values were derived by fitting the data to the equation for a sigmoidal dose-response with a variable slope. Y=Bottom+(Top-Bottom)/(1+10^((Log IC50-X)*Hill Slope)) where X is the logarithm of concentration and Y is the response.
The data in Table 1 was measured in wild-type un-phosphorylated FGFR1, FGFR2, FGFR3, and FGFR4 proteins.
Test [2] concerns the target wild-type un-phosphorylated FGFR3 (Homo sapiens, UniProt P22607). Put plainly: FGFR Enzymatic Assay (FRET peptide phosphorylation), FGFR3.
Procedure: as §1, §2, §3
Test [3] concerns the target wild-type un-phosphorylated FGFR1 (Homo sapiens, UniProt P11362). Put plainly: FGFR Enzymatic Assay (FRET peptide phosphorylation), FGFR1. Conditions: pre-incubated for 4 hours.
In test [4] the target is wild-type un-phosphorylated FGFR4 (Homo sapiens, UniProt P22455). As to the kind of experiment: FGFR Enzymatic Assay (FRET peptide phosphorylation), FGFR4.
Chain of wild-type un-phosphorylated FGFR4 (P22455 22-802): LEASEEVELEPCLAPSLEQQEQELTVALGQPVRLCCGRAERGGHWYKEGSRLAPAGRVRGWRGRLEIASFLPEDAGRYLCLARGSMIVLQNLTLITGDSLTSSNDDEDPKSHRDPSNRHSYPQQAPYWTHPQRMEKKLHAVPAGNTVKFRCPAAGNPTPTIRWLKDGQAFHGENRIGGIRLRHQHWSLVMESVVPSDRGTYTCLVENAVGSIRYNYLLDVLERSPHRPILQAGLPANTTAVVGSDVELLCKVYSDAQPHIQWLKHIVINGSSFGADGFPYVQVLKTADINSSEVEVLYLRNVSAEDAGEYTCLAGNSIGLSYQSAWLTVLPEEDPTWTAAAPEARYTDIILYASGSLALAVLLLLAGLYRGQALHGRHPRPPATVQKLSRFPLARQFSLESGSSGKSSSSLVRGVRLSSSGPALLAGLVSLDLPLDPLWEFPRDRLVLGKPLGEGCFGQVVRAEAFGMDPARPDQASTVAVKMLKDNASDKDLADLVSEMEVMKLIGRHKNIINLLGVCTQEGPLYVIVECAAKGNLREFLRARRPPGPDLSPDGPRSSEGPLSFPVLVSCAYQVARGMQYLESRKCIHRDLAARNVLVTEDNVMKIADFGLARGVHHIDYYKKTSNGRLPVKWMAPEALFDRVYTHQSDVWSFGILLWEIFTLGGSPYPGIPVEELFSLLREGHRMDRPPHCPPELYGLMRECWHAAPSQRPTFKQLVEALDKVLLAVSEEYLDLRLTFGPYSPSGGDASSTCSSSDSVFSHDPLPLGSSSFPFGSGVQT
[5] abbreviates: read-out: FGFR1, wild-type un-phosphorylated FGFR1.
The mark [6] stands for this setting: FGFR1, wild-type un-phosphorylated FGFR1.
[7] abbreviates: read-out: FGFR4, wild-type un-phosphorylated FGFR4, pre-incubated for 4 hours.

Structures are written as SMILES. Like-named read-outs stand apart in the source and are kept apart here.

Chain of wild-type un-phosphorylated FGFR2 (P21802 22-821): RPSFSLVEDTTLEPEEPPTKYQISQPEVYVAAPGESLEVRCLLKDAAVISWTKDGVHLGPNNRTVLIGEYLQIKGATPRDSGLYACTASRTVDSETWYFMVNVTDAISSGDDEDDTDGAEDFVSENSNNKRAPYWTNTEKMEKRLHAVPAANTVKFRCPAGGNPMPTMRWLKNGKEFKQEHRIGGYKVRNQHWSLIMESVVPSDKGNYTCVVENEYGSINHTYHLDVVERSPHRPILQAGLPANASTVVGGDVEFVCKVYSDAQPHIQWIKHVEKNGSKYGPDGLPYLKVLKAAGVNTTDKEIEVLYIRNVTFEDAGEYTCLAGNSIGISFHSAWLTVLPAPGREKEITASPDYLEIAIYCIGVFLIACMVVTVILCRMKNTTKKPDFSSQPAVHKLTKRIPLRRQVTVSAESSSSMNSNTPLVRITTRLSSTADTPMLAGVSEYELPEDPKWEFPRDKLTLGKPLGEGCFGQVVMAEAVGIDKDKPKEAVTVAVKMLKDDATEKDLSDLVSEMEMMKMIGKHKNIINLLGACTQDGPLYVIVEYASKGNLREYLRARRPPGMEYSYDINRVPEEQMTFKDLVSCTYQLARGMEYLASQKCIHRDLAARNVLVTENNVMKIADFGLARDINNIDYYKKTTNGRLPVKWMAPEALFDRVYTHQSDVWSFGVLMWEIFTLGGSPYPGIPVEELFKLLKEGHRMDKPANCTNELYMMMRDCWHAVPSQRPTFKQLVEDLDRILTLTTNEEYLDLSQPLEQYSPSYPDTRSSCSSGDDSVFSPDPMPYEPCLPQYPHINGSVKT
Chain of wild-type un-phosphorylated FGFR3 (P22607 23-806): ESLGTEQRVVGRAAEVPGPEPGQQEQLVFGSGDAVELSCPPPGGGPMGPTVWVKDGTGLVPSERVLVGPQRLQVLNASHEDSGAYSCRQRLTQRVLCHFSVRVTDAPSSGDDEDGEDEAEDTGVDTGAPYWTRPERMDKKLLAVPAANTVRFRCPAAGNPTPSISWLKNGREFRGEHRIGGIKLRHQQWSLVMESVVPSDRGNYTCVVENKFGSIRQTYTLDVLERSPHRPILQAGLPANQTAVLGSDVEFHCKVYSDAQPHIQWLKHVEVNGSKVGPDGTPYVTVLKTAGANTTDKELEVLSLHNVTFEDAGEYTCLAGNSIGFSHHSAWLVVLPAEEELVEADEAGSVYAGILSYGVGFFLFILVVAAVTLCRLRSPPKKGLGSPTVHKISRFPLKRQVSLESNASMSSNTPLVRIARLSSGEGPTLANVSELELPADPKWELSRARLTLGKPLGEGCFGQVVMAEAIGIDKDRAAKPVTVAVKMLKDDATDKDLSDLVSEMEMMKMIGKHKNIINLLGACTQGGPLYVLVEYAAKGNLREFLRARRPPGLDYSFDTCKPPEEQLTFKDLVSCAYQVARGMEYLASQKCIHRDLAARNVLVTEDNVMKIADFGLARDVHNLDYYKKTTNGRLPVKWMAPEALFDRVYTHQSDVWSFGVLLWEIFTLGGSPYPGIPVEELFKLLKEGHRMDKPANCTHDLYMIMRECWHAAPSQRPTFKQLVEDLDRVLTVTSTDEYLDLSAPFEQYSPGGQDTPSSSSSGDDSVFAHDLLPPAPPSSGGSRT
Chain of wild-type un-phosphorylated FGFR1 (P11362 22-822): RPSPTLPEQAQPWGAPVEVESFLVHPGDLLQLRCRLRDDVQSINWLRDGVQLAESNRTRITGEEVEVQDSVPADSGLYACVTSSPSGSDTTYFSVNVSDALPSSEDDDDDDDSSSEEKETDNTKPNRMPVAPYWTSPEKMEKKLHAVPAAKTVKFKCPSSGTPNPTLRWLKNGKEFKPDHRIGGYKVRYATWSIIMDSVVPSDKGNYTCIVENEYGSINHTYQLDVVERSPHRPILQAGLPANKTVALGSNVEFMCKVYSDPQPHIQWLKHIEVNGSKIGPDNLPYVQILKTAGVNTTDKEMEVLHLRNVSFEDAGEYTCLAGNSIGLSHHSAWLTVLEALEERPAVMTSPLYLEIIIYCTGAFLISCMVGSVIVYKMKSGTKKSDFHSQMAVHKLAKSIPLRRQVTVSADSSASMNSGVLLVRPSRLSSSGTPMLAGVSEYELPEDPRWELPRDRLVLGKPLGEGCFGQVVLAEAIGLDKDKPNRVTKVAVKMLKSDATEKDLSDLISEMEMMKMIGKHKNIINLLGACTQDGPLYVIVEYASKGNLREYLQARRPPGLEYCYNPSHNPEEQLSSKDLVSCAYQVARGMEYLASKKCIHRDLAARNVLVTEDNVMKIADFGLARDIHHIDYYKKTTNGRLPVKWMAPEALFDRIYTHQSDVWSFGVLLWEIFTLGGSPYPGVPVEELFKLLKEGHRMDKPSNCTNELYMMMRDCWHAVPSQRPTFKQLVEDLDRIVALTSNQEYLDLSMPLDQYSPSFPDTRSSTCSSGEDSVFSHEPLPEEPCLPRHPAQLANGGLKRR

As to `COc1cc2[nH]nc(-c3cnn(C4CN(C(=O)[C@@H]5COCCN5C)C4)c3)c2nc1-c1cccc2c1CCC2` [Example 128, (S)-(3-(4-(5-(2,3-Dihydro-1H-inden-4-yl)-6-methoxy-1H-pyrazolo[4,3-b]pyridin-3-yl)-1H-pyrazol-1-yl)azetidin-1-yl)(4-methylmorpholin-3-yl)methanone], the IC50 in test [1] is less than 6 nM; in test [2], less than 6 nM; in test [3] (setting [5]) it was 6 to 40 nM; in test [4] it was 40 to 100 nM.

Take `COc1cc2[nH]nc(-c3cnn(C)c3)c2nc1-c1cccc(C)c1C` [Example 1, 5-(2,3-Dimethylphenyl)-6-methoxy-3-(1-methyl-1H-pyrazol-4-yl)-1H-pyrazolo[4,3-b]pyridine]: the IC50 in test [1] (read-out: FGFR2, wild-type un-phosphorylated FGFR2, pre-incubated for 4 hours) is 6 to 40 nM; in test [2], less than 6 nM; in test [3] (setting [6]), greater than 100 nM; in test [4], greater than 100 nM.

For `COc1cc2[nH]nc(-c3ccc(C4(C#N)CCN(CCO)CC4)nc3)c2nc1-c1cccc2c1CCC2` [Example 164, 4-(5-(5-(2,3-Dihydro-1H-inden-4-yl)-6-methoxy-1H-pyrazolo[4,3-b]pyridin-3-yl)pyridin-2-yl)-1-(2-hydroxyethyl)piperidine-4-carbonitrile], the IC50 in test [1] was less than 6 nM; in test [2] it was less than 6 nM; in test [3] (setting [6]) it was 40 to 100 nM; in test [4] it was 40 to 100 nM.

Regarding `COC(=O)N1CCC(c2ccc(-c3n[nH]c4cc(OC)c(-c5cccc6c5CCC6C#N)nc34)cn2)CC1` (centres unmarked) [Example 180, Methyl 4-(5-(5-(1-Cyano-2,3-dihydro-1H-inden-4-yl)-6-methoxy-1H-pyrazolo[4,3-b]pyridin-3-yl)pyridin-2-yl)piperidine-1-carboxylate], the IC50 in test [1] is less than 6 nM; in test [2] it was less than 6 nM; in test [3] (setting [6]) it was 40 to 100 nM; in test [4], 40 to 100 nM.

For the compound `COc1cc2[nH]nc(-c3ccc(C45CC4CN(C(=O)CO)C5)nc3)c2nc1-c1cccc2c1CCC2` (centres unmarked) [Example 191A, 1-(1-(5-(5-(2,3-Dihydro-1H-inden-4-yl)-6-methoxy-1H-pyrazolo[4,3-b]pyridin-3-yl)pyridin-2-yl)-3-azabicyclo[3.1.0]hexan-3-yl)-2-hydroxyethan-1-one], the IC50 was less than 6 nM in test [1], less than 6 nM in test [2], 6 to 40 nM in test [3] (setting [5]) and 6 to 40 nM in test [4] (setting [7]).

On to `COc1cc2[nH]nc(-c3ccc(CN4CCC(O)CC4)nc3)c2nc1-c1cccc2c1CCC2` [Example 160, 1-((5-(5-(2,3-Dihydro-1H-inden-4-yl)-6-methoxy-1H-pyrazolo[4,3-b]pyridin-3-yl)pyridin-2-yl)methyl)piperidin-4-ol], for which the IC50 in test [1] is less than 6 nM; in test [2], less than 6 nM; in test [3] (setting [6]) it was 40 to 100 nM; in test [4], 40 to 100 nM.

As to `COc1cc2[nH]nc(-c3ccc(C4CN(C(=O)CO)C4)nc3)c2nc1-c1cccc2c1CCC2` [Example 176, 1-(3-(5-(5-(2,3-Dihydro-1H-inden-4-yl)-6-methoxy-1H-pyrazolo[4,3-b]pyridin-3-yl)pyridin-2-yl)azetidin-1-yl)-2-hydroxyethan-1-one], the IC50 is less than 6 nM in test [1], less than 6 nM in test [2], 6 to 40 nM in test [3] (setting [5]) and 40 to 100 nM in test [4].

Take `COc1cc2[nH]nc(-c3ccc(N4CCN(C)CC4)nc3)c2nc1-c1cccc2c1CCC2C#N` (centres unmarked) [Example 110, 4-(6-Methoxy-3-(6-(4-methylpiperazin-1-yl)pyridin-3-yl)-1H-pyrazolo[4,3-b]pyridin-5-yl)-2,3-dihydro-1H-indene-1-carbonitrile]: the IC50 in test [1] was less than 6 nM; in test [2] it was less than 6 nM; in test [3] (setting [5]) it was 6 to 40 nM; in test [4] (setting [7]), 6 to 40 nM.
